Source: patent US20250264397A1, “Light-field Flow Cytometer” (Georgia Tech Research Corporation, priority 2024, published 2025)

Test system: Jurkat cells
Assay: Jurkat cell apoptosis induced by staurosporine (STS) treatment, imaged by light-field flow cytometry (LFC)
Format: cell-based, human
Conditions: 1-μM STS
Description: Jurkat cell apoptosis induced by staurosporine (STS) treatment and staining. Jurkat T cells (e.g., #88042803, Sigma-Aldrich) were cultured in RPMI with 10% FBS and 1% Pen-Strep as a modified RPMI medium at 37° C. and in a 5% CO2 environment. On the imaging day, 1 μM of STS was added to 4 cell dishes, incubating for 30, 60, 120, and 300 min, respectively, at 37° C. The following procedures for preparing cells in the 4 dishes were the same. After the treatment, cells were centrifuged (e.g., 500× g, 6 min, 37° C.) and resuspended into the modified RPMI medium. After two rounds of centrifuge-washing, cells were resuspended into 6 mL of modified RPMI medium. For fluorescence labeling, 250 nM of SYTO16 green stains were added to the culture dish, and the cells were incubated for 1 hour. At the halfway of incubation (30 min), 150 nM of Mito Tracker Deep Red FM stains were added to the culture dish. After another 30 min, cells were centrifuged (e.g., 500× g, 6 min, 37° C.) and resuspended into 6 mL of the 4% PFA fixation buffer. Cells were fixed at room temperature for 12 min. After fixation, cells were centrifuged (800× g, 6 min, room temperature) and resuspended into PBS twice. Finally, cells were stored in PBS for imaging flow cytometry.
Imaging morphological changes in staurosporine-treated Jurkat cells. […]

CN[C@@H]1C[C@H]2O[C@@](C)([C@@H]1OC)n1c3ccccc3c3c4c(c5c6ccccc6n2c5c31)C(=O)NC4 [Staurosporine]
cells showed apoptotic nuclei (after 5 h of treatment): over 53% | Jurkat cell nuclear morphology (with the treatment period increased (30, 60, 120, 300 min)): reduced volumes and fragmented micronuclei
